Several values for one entry are separate records, joined by “and”; a condition that tells them apart may be missing. Identical values can stand only once. Numbers after ± are expanded uncertainties.
Columns and labels:
[1] = refractive index (other wavelength) (dimensionless); xn = mol fraction of the nth substance listed; conditions: 290.9 K, 101 kPa, Liquid, Wavelength=632.8 nm, He-Ne laser
[2] = heat capacity at constant pressure per volume; xn = mol fraction of the nth substance listed; conditions: 101 kPa, Liquid, DSC, calvet, x2 = 0.44

N#Cc1ccccc1 [benzonitrile] + CCCCCCCCCCC
refractive index ([1]; x2 = 0.133): 1.5005 ± 0.0004 | refractive index ([1]; x2 = 0.212): 1.4877 ± 0.0004 | refractive index ([1]; x2 = 0.336): 1.4708 ± 0.0004 | refractive index ([1]; x2 = 0.42): 1.4607 ± 0.0004 | refractive index ([1]; x2 = 0.512): 1.4513 ± 0.0003 | refractive index ([1]; x2 = 0.606): 1.443 ± 0.0003 | refractive index ([1]; x2 = 0.704): 1.4351 ± 0.0003 | refractive index ([1]; x2 = 0.799): 1.4285 ± 0.0003 | refractive index ([1]; x2 = 0.902): 1.4222 ± 0.0003 | heat capacity ([2]; 286.54 K): 1846500 ± 14000 J/K/m3 | heat capacity ([2]; 286.76 K): 1854000 ± 14000 J/K/m3 | heat capacity ([2]; 286.99 K): 1862200 ± 15000 J/K/m3 | heat capacity ([2]; 287.22 K): 1857300 ± 14000 J/K/m3 | heat capacity ([2]; 287.45 K): 1862800 ± 14000 J/K/m3 | heat capacity ([2]; 287.68 K): 1867600 ± 14000 J/K/m3 | heat capacity ([2]; 287.91 K): 1870300 ± 14000 J/K/m3 | heat capacity ([2]; 288.14 K): 1878500 ± 15000 J/K/m3 | heat capacity ([2]; 288.37 K): 1879100 ± 15000 J/K/m3 | heat capacity ([2]; 288.6 K): 1887700 ± 15000 J/K/m3 | heat capacity ([2]; 288.83 K): 1896600 ± 15000 J/K/m3 | heat capacity ([2]; 288.94 K): 1895600 ± 15000 J/K/m3 | heat capacity ([2]; 289.06 K): 1899000 ± 16000 J/K/m3 | heat capacity ([2]; 289.17 K): 1913500 ± 16000 J/K/m3 | heat capacity ([2]; 289.29 K): 1889000 ± 12000 J/K/m3 | heat capacity ([2]; 289.4 K): 1931900 ± 16000 J/K/m3 | heat capacity ([2]; 289.43 K): 1910800 ± 15000 J/K/m3 | heat capacity ([2]; 289.46 K): 1918000 ± 16000 J/K/m3 | heat capacity ([2]; 289.5 K): 1946800 ± 18000 J/K/m3 | heat capacity ([2]; 289.53 K): 1960500 ± 18000 J/K/m3 | heat capacity ([2]; 289.56 K): 1952300 ± 18000 J/K/m3 | heat capacity ([2]; 289.6 K): 1953700 ± 17000 J/K/m3 | heat capacity ([2]; 289.63 K): 1973800 ± 18000 J/K/m3 | heat capacity ([2]; 289.67 K): 1984300 ± 21000 J/K/m3 | heat capacity ([2]; 289.7 K): 1990700 ± 20000 J/K/m3 | heat capacity ([2]; 289.74 K): 1995400 ± 23000 J/K/m3 | heat capacity ([2]; 289.75 K): 2003100 ± 19000 J/K/m3 | heat capacity ([2]; 289.77 K): 2011400 ± 22000 J/K/m3 | heat capacity ([2]; 289.78 K): 2022500 ± 25000 J/K/m3 | heat capacity ([2]; 289.79 K): 2035800 ± 26000 J/K/m3 | heat capacity ([2]; 289.8 K): 2046300 ± 26000 J/K/m3 | heat capacity ([2]; 289.81 K): 2053900 ± 28000 J/K/m3 | heat capacity ([2]; 289.82 K): 2063600 ± 28000 J/K/m3 | heat capacity ([2]; 289.83 K): 2084100 ± 29000 J/K/m3 | heat capacity ([2]; 289.85 K): 2111800 ± 35000 J/K/m3 | heat capacity ([2]; 289.86 K): 2155800 ± 53000 J/K/m3 and 2141800 ± 67000 J/K/m3 and 2104500 ± 120000 J/K/m3 | heat capacity ([2]; 289.87 K): 2067700 ± 510000 J/K/m3 and 2029900 ± 150000 J/K/m3 and 1997600 ± 66000 J/K/m3 | heat capacity ([2]; 289.88 K): 1943900 ± 39000 J/K/m3 and 1858200 ± 29000 J/K/m3 | heat capacity ([2]; 289.89 K): 1823500 ± 26000 J/K/m3 | heat capacity ([2]; 289.9 K): 1809500 ± 24000 J/K/m3 | heat capacity ([2]; 289.92 K): 1795800 ± 27000 J/K/m3 | heat capacity ([2]; 289.93 K): 1786900 ± 29000 J/K/m3 | heat capacity ([2]; 289.94 K): 1780500 ± 28000 J/K/m3 | heat capacity ([2]; 289.95 K): 1778700 ± 32000 J/K/m3 | heat capacity ([2]; 289.98 K): 1770500 ± 36000 J/K/m3 | heat capacity ([2]; 290.01 K): 1757500 ± 12000 J/K/m3 | heat capacity ([2]; 290.04 K): 1756200 ± 12000 J/K/m3 | heat capacity ([2]; 290.06 K): 1746900 ± 11000 J/K/m3 | heat capacity ([2]; 290.09 K): 1748200 ± 9900 J/K/m3 | heat capacity ([2]; 290.12 K): 1747000 ± 10000 J/K/m3 | heat capacity ([2]; 290.15 K): 1739100 ± 10000 J/K/m3 | heat capacity ([2]; 290.18 K): 1736600 ± 10000 J/K/m3 | heat capacity ([2]; 290.21 K): 1740600 ± 9500 J/K/m3 | heat capacity ([2]; 290.24 K): 1732400 ± 9900 J/K/m3 | heat capacity ([2]; 290.27 K): 1728300 ± 9700 J/K/m3 | heat capacity ([2]; 290.44 K): 1721500 ± 9200 J/K/m3 | heat capacity ([2]; 290.64 K): 1711900 ± 8600 J/K/m3 | heat capacity ([2]; 290.84 K): 1707300 ± 8400 J/K/m3 | heat capacity ([2]; 291.04 K): 1702300 ± 8600 J/K/m3 | heat capacity ([2]; 291.24 K): 1698500 ± 8400 J/K/m3 | heat capacity ([2]; 291.44 K): 1694500 ± 8400 J/K/m3 | heat capacity ([2]; 291.64 K): 1693500 ± 8400 J/K/m3 | heat capacity ([2]; 291.85 K): 1691400 ± 8600 J/K/m3 | heat capacity ([2]; 292.05 K): 1688200 ± 8400 J/K/m3 | heat capacity ([2]; 292.25 K): 1688500 ± 8400 J/K/m3 | heat capacity ([2]; 292.45 K): 1685900 ± 8400 J/K/m3 | heat capacity ([2]; 292.65 K): 1684300 ± 8200 J/K/m3 | heat capacity ([2]; 292.85 K): 1683400 ± 8200 J/K/m3 | heat capacity ([2]; 293.19 K): 1682100 ± 7800 J/K/m3 | heat capacity ([2]; 293.43 K): 1680500 ± 7600 J/K/m3 | heat capacity ([2]; 293.65 K): 1678500 ± 8000 J/K/m3 | heat capacity ([2]; 293.88 K): 1679000 ± 7600 J/K/m3 | heat capacity ([2]; 294.11 K): 1678400 ± 7800 J/K/m3 | heat capacity ([2]; 294.34 K): 1676100 ± 7800 J/K/m3 | heat capacity ([2]; 294.57 K): 1675700 ± 7400 J/K/m3 | heat capacity ([2]; 294.8 K): 1675100 ± 7800 J/K/m3 | heat capacity ([2]; 295.11 K): 1673900 ± 800 J/K/m3 | heat capacity ([2]; 295.85 K): 1672100 ± 800 J/K/m3 | heat capacity ([2]; 296.59 K): 1670800 ± 800 J/K/m3 | heat capacity ([2]; 297.34 K): 1670100 ± 800 J/K/m3 | heat capacity ([2]; 298.08 K): 1669100 ± 800 J/K/m3 | heat capacity ([2]; 298.82 K): 1667900 ± 800 J/K/m3 | heat capacity ([2]; 299.57 K): 1667300 ± 800 J/K/m3 | heat capacity ([2]; 300.31 K): 1667200 ± 800 J/K/m3 | heat capacity ([2]; 301.05 K): 1666300 ± 800 J/K/m3 | heat capacity ([2]; 301.8 K): 1666200 ± 800 J/K/m3 | heat capacity ([2]; 302.54 K): 1665900 ± 600 J/K/m3 | heat capacity ([2]; 303.29 K): 1665200 ± 600 J/K/m3 | heat capacity ([2]; 304.03 K): 1665100 ± 600 J/K/m3 | heat capacity ([2]; 304.77 K): 1665400 ± 600 J/K/m3 | heat capacity ([2]; 305.52 K): 1665600 ± 600 J/K/m3 | heat capacity ([2]; 306.26 K): 1665000 ± 600 J/K/m3 | heat capacity ([2]; 307 K): 1664800 ± 600 J/K/m3 | heat capacity ([2]; 307.75 K): 1665500 ± 600 J/K/m3 | heat capacity ([2]; 308.49 K): 1665600 ± 600 J/K/m3 | heat capacity ([2]; 309.23 K): 1665400 ± 600 J/K/m3 | heat capacity ([2]; 309.98 K): 1665500 ± 600 J/K/m3 | heat capacity ([2]; 310.72 K): 1665900 ± 600 J/K/m3 | heat capacity ([2]; 311.46 K): 1666400 ± 600 J/K/m3 | heat capacity ([2]; 312.21 K): 1666000 ± 600 J/K/m3 | heat capacity ([2]; 312.95 K): 1665700 ± 600 J/K/m3 | heat capacity ([2]; 313.69 K): 1666100 ± 600 J/K/m3 | heat capacity ([2]; 314.44 K): 1667100 ± 600 J/K/m3 | heat capacity ([2]; 315.18 K): 1666800 ± 600 J/K/m3 | heat capacity ([2]; 315.92 K): 1667700 ± 600 J/K/m3 | heat capacity ([2]; 316.67 K): 1668100 ± 600 J/K/m3 | heat capacity ([2]; 317.41 K): 1667700 ± 600 J/K/m3 | heat capacity ([2]; 318.15 K): 1667700 ± 600 J/K/m3 | heat capacity ([2]; 318.9 K): 1668700 ± 600 J/K/m3 | heat capacity ([2]; 319.64 K): 1667900 ± 600 J/K/m3 | heat capacity ([2]; 320.69 K): 1668700 ± 600 J/K/m3 | heat capacity ([2]; 321.75 K): 1669700 ± 600 J/K/m3 | heat capacity ([2]; 322.8 K): 1669700 ± 600 J/K/m3 | heat capacity ([2]; 323.86 K): 1670100 ± 600 J/K/m3 | heat capacity ([2]; 324.91 K): 1671400 ± 600 J/K/m3
